These compounds were tested against T1, rat metabotropic glutamate receptor 5 (mGluR5) (Rattus norvegicus, UniProt P31424) (assay: Calcium mobilization assay (FLIPR) for negative or positive allosteric activity, HEK 293 cells). Conditions: HEK293, negative allosteric modulation, inhibition of EC80 glutamate response; read-out: FLIPR maximum inhibition.
T1 construct: expressed in transfected cells; host or cells: HEK 293
Type: cell-based
Procedure, shortened: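 Peak Fluo-4 calcium signal over 3 min at room temperature, minus basal, fitted by Hill equation, in stable rat mGluR5 HEK 293 cells (HBSS/HEPES pH 7.4, BSA, probenecid). Inhibition scored against EC80 glutamate, potentiation against EC20 glutamate, glutamate given with compound.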

T1 sequence (P31424 21-1171 isoform P31424-2 limits assumed): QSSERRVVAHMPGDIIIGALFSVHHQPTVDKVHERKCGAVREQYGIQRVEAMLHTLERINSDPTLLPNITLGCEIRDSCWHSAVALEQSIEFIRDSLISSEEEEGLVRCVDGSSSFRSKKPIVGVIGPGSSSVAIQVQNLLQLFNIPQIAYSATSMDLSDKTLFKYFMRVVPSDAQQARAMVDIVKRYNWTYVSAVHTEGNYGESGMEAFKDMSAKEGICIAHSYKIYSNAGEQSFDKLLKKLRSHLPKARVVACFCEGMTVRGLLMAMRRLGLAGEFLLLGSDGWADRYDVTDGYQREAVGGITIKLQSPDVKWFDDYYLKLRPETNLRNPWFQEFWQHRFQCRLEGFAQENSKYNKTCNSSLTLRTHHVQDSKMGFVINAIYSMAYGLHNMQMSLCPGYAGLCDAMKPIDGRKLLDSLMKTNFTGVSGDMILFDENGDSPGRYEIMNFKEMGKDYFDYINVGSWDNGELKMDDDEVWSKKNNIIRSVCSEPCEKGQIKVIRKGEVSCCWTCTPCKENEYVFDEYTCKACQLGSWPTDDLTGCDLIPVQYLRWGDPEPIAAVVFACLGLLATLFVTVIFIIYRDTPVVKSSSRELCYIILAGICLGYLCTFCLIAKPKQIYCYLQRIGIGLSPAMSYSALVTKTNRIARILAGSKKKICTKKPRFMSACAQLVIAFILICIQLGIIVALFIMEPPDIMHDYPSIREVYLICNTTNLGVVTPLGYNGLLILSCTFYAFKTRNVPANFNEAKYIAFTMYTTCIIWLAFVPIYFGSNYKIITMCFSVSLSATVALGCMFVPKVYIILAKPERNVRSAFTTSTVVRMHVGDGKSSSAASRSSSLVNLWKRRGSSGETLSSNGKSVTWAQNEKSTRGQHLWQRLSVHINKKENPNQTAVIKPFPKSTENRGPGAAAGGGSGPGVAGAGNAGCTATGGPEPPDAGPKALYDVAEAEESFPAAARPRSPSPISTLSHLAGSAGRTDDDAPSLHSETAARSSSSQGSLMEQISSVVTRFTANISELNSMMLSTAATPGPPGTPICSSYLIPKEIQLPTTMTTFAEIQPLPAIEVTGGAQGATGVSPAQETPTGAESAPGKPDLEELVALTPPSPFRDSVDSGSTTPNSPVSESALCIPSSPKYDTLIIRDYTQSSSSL

Row | Emax [%] | Structure (SMILES)
1 | 63 to 99 | CN(C)CCN(C)c1cccc(C(=O)NC23CC4CC(CC(NC(=O)c5ccccn5)(C4)C2)C3)n1 [Example 227, 6-[(2-Dimethylamino-ethyl)-methyl-amino]-pyridine-2-carboxylic acid {3-[(pyridine-2-carbonyl)-amino]-adamantan-1-yl}-amide]
2 | 63 to 99 | Cc1cccc(C(=O)NC23CC4CC(C2)CC(NC(=O)c2cccc(N(C)CCCN(C)C)n2)(C4)C3)n1 [Example 233, 6-[(3-Dimethylamino-propyl)-methyl-amino]-pyridine-2-carboxylic acid {3-[(6-methyl-pyridine-2-carbonyl)-amino]-adamantan-1-yl}-amide]
3 | 63 to 99 | COCCCNc1cccc(C(=O)NC23CC4CC(CC(NC(=O)c5cccc(F)c5)(C4)C2)C3)n1 [Example 241, 6-(3-Methoxy-propylamino)-pyridine-2-carboxylic acid [3-(3-fluoro-benzoylamino)-adamantan-1-yl]-amide]
4 | 63 to 99 | CN(C)CCNc1cccc(C(=O)NC23CC4CC(CC(NC(=O)c5cccc(F)c5)(C4)C2)C3)n1 [Example 242, 6-(2-Dimethylamino-ethylamino)-pyridine-2-carboxylic acid [3-(3-fluoro-benzoylamino)-adamantan-1-yl]-amide]
5 | 63 to 99 | CN(C)CCCN(C)c1cccc(C(=O)NC23CC4CC(CC(NC(=O)c5cccc(F)c5)(C4)C2)C3)n1 [Example 243, 6-[(3-Dimethylamino-propyl)-methyl-amino]-pyridine-2-carboxylic acid [3-(3-fluoro-benzoylamino)-adamantan-1-yl]-amide]
6 | 63 to 99 | CC(=O)NCCNc1cccc(C(=O)NC23CC4CC(CC(NC(=O)c5cccc(F)c5)(C4)C2)C3)n1 [Example 244, 6-(2-Acetylamino-ethylamino)-pyridine-2-carboxylic acid [3-(3-fluoro-benzoylamino)-adamantan-1-yl]-amide]
7 | 63 to 99 | COCCNc1cccc(C(=O)NC23CC4CC(CC(NC(=O)c5cccc(F)c5)(C4)C2)C3)n1 [Example 245, 6-(2-Methoxy-ethylamino)-pyridine-2-carboxylic acid [3-(3-fluoro-benzoylamino)-adamantan-1-yl]-amide]
8 | 63 to 99 | COCCN(C)c1cccc(C(=O)NC23CC4CC(CC(NC(=O)c5cccc(F)c5)(C4)C2)C3)n1 [Example 246, 6-[(2-Methoxy-ethyl)-methyl-amino]-pyridine-2-carboxylic acid [3-(3-fluoro-benzoylamino)-adamantan-1-yl]-amide]
9 | 63 to 99 | CN(C)CCCNc1cccc(C(=O)NC23CC4CC(CC(NC(=O)c5cccc(F)c5)(C4)C2)C3)n1 [Example 247, 6-(3-Dimethylamino-propylamino)-pyridine-2-carboxylic acid [3-(3-fluoro-benzoylamino)-adamantan-1-yl]-amide]
10 | 63 to 99 | CN(C)CCN(C)c1cccc(C(=O)NC23CC4CC(CC(NC(=O)c5cccc(F)c5)(C4)C2)C3)n1 [Example 248, 6-[(2-Dimethylamino-ethyl)-methyl-amino]-pyridine-2-carboxylic acid [3-(3-fluoro-benzoylamino)-adamantan-1-yl]-amide]
11 | 63 to 99 | O=C(NC12CC3CC(C1)CC(NC(=O)c1cccc(N4CCC[C@H]4CO)n1)(C3)C2)c1cccc(F)c1 [Example 249, 6-((S)-2-Hydroxymethyl-pyrrolidin-1-yl)-pyridine-2-carboxylic acid [3-(3-fluoro-benzoylamino)-adamantan-1-yl]-amide]
12 | 63 to 99 | O=C(NC12CC3CC(C1)CC(NC(=O)c1cccc(N4CCC[C@@H]4CO)n1)(C3)C2)c1cccc(F)c1 [Example 250, 6-((R)-2-Hydroxymethyl-pyrrolidin-1-yl)-pyridine-2-carboxylic acid [3-(3-fluoro-benzoylamino)-adamantan-1-yl]-amide]
13 | 63 to 99 | NC(=O)CCNc1cccc(C(=O)NC23CC4CC(CC(NC(=O)c5cccc(F)c5)(C4)C2)C3)n1 [Example 252, 6-(2-Carbamoyl-ethylamino)-pyridine-2-carboxylic acid [3-(3-fluoro-benzoylamino)-adamantan-1-yl]-amide]
14 | 63 to 99 | O=C(NC12CC3CC(C1)CC(NC(=O)c1cccc(-n4ccnc4)n1)(C3)C2)c1cccc(F)c1 [Example 255, 6-Imidazol-1-yl-pyridine-2-carboxylic acid [3-(3-fluoro-benzoylamino)-adamantan-1-yl]-amide]

The remaining lines, values behind:

Row | Structure (SMILES) | Emax [%]
15 | O=C(NC12CC3CC(C1)CC(NC(=O)c1cccc(N4CCC[C@H]4CO)n1)(C3)C2)c1ccccn1 [Example 228, 6-((S)-2-Hydroxymethyl-pyrrolidin-1-yl)-pyridine-2-carboxylic acid {3-[(pyridine-2-carbonyl)-amino]-adamantan-1-yl}-amide] | 63 to 99
16 | O=C(NC12CC3CC(C1)CC(NC(=O)c1cccc(N4CCC[C@@H]4CO)n1)(C3)C2)c1ccccn1 [Example 229, 6-((R)-2-Hydroxymethyl-pyrrolidin-1-yl)-pyridine-2-carboxylic acid {3-[(pyridine-2-carbonyl)-amino]-adamantan-1-yl}-amide] | 63 to 99
17 | NC(=O)[C@@H]1CCCN1c1cccc(C(=O)NC23CC4CC(CC(NC(=O)c5ccccn5)(C4)C2)C3)n1 [Example 230, 6-((S)-2-Carbamoyl-pyrrolidin-1-yl)-pyridine-2-carboxylic acid {3-[(pyridine-2-carbonyl)-amino]-adamantan-1-yl}-amide] | 63 to 99
18 | COCCCNc1cccc(C(=O)NC23CC4CC(CC(NC(=O)c5cccc(C)n5)(C4)C2)C3)n1 [Example 231, 6-(3-Methoxy-propylamino)-pyridine-2-carboxylic acid {3-[(6-methyl-pyridine-2-carbonyl)-amino]-adamantan-1-yl}-amide] | 63 to 99
19 | Cc1cccc(C(=O)NC23CC4CC(C2)CC(NC(=O)c2cccc(NCCN(C)C)n2)(C4)C3)n1 [Example 232, 6-(2-Dimethylamino-ethylamino)-pyridine-2-carboxylic acid {3-[(6-methyl-pyridine-2-carbonyl)-amino]-adamantan-1-yl}-amide] | 63 to 99
20 | CC(=O)NCCNc1cccc(C(=O)NC23CC4CC(CC(NC(=O)c5cccc(C)n5)(C4)C2)C3)n1 [Example 234, 6-(2-Acetylamino-ethylamino)-pyridine-2-carboxylic acid {3-[(6-methyl-pyridine-2-carbonyl)-amino]-adamantan-1-yl}-amide] | 63 to 99
21 | COCCNc1cccc(C(=O)NC23CC4CC(CC(NC(=O)c5cccc(C)n5)(C4)C2)C3)n1 [Example 235] | 63 to 99
22 | Cc1cccc(C(=O)NC23CC4CC(C2)CC(NC(=O)c2cccc(NCCCN(C)C)n2)(C4)C3)n1 [Example 236, 6-(3-Dimethylamino-propylamino)-pyridine-2-carboxylic acid {3-[(6-methyl-pyridine-2-carbonyl)-amino]-adamantan-1-yl}-amide] | 63 to 99
23 | Cc1cccc(C(=O)NC23CC4CC(C2)CC(NC(=O)c2cccc(N5CCC[C@H]5CO)n2)(C4)C3)n1 [Example 237, 6-((S)-2-Hydroxymethyl-pyrrolidin-1-yl)-pyridine-2-carboxylic acid {3-[(6-methyl-pyridine-2-carbonyl)-amino]-adamantan-1-yl}-amide] | 63 to 99
24 | Cc1cccc(C(=O)NC23CC4CC(C2)CC(NC(=O)c2cccc(N5CCC[C@@H]5CO)n2)(C4)C3)n1 [Example 238, 6-((R)-2-Hydroxymethyl-pyrrolidin-1-yl)-pyridine-2-carboxylic acid {3-[(6-methyl-pyridine-2-carbonyl)-amino]-adamantan-1-yl}-amide] | 63 to 99
25 | Cc1cccc(C(=O)NC23CC4CC(C2)CC(NC(=O)c2cccc(N5CCC[C@H]5C(N)=O)n2)(C4)C3)n1 [Example 239, 6-((S)-2-Carbamoyl-pyrrolidin-1-yl)-pyridine-2-carboxylic acid {3-[(6-methyl-pyridine-2-carbonyl)-amino]-adamantan-1-yl}-amide] | 63 to 99
26 | Cc1cccc(C(=O)NC23CC4CC(C2)CC(NC(=O)c2cccc(NCCC(N)=O)n2)(C4)C3)n1 [Example 240, 6-(2-Carbamoyl-ethylamino)-pyridine-2-carboxylic acid (3-[(6-methyl-pyridine-2-carbonyl)-amino]-adamantan-1-yl}-amide] | 63 to 99
27 | NC(=O)[C@@H]1CCCN1c1cccc(C(=O)NC23CC4CC(CC(NC(=O)c5cccc(F)c5)(C4)C2)C3)n1 [Example 251, 6-((S)-2-Carbamoyl-pyrrolidin-1-yl)-pyridine-2-carboxylic acid [3-(3-fluoro-benzoylamino)-adamantan-1-yl]-amide] | 63 to 99
28 | O=C(NC12CC3CC(C1)CC(NC(=O)c1cccc(-n4ccnc4)n1)(C3)C2)c1ccccn1 [Example 253, 6-Imidazol-1-yl-pyridine-2-carboxylic acid {3-[(pyridine-2-carbonyl)-amino]-adamantan-1-yl}-amide] | 63 to 99
29 | Cc1cccc(C(=O)NC23CC4CC(C2)CC(NC(=O)c2cccc(-n5ccnc5)n2)(C4)C3)n1 [Example 254, 6-Imidazol-1-yl-pyridine-2-carboxylic acid {3-[(6-methyl-pyridine-2-carbonyl)-amino]-adamantan-1-yl}-amide] | 63 to 99

Same assay, conditions: positive modulation, increase in EC20 glutamate response

Row | EC50 [nM] | maximum modulation [%] | Structure (SMILES)
30 | 300 | 170 | Cc1cncc(C(=O)NC23CC4CC(CC(NC(=O)c5cc(-c6ccc(F)cc6)ncn5)(C4)C2)C3)n1 [Example 256, 6-(4-Fluoro-phenyl)-pyimidine-4-carboxylic acid {3-[(6-methyl-pyrazine-2-carbonyl)-aminpo]-adamantan-1-yl}-amide]
31 | 830 | 120 | Cc1cncc(C(=O)NC23CC4CC(CC(NC(=O)c5cc(-c6ccccc6)ncn5)(C4)C2)C3)n1 [Example 257, 6-Phenyl-pyrimidine-4-carboxylic acid {3-[(6-methyl-pyrazine-2-carbonyl)-amino]-adamantan-1-yl}-amide]
